Data reported in PubChem BioAssay (NCI).
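In this assay, cells in 96-well plates receive the compound at five concentrations for 48 hours. Endpoints are linearly interpolated between the surrounding concentrations. GI50 = concentration required for 50% inhibition of growth. TGI marks complete inhibition of growth.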

Experiments:
Assay in all cases: NCI-60 cell line screen, 48 h
[1] = system: LOX IMVI melanoma
[2] = system: DU-145 prostate
[3] = system: PC-3 prostate
[4] = system: HCC-2998 colon
[5] = system: OVCAR-4 ovarian
[6] = system: T-47D breast
[7] = system: MDA-MB-468 breast
[8] = system: SK-MEL-2 melanoma
[9] = system: SK-MEL-28 melanoma
[10] = system: CAKI-1 renal
[11] = system: HCT-15 colon
[12] = system: UO-31 renal
[13] = system: A549 NSCLC
[14] = system: OVCAR-5 ovarian
[15] = system: SNB-19 CNS
[16] = system: MDA-MB-435
[17] = system: ACHN renal
[18] = system: RXF 393 renal
[19] = system: HS 578T breast
[20] = system: SN12C renal
[21] = system: OVCAR-3 ovarian
[22] = system: TK-10 renal
[23] = system: 786-0 renal
[24] = system: OVCAR-8 ovarian
[25] = system: NCI-H23 lung
[26] = system: KM12 colon
[27] = system: UACC-257 melanoma
[28] = system: HT29 colon
[29] = system: SF-539 CNS
[30] = system: MALME-3M melanoma
[31] = system: A498 renal
[32] = system: NCI-H226 lung
[33] = system: SNB-75 CNS
[34] = system: SR leukemia
[35] = system: UACC-62 melanoma
[36] = system: IGROV1 ovarian
[37] = system: MDA-MB-231 breast
[38] = system: SK-MEL-5 melanoma
[39] = system: NCI-H522 lung
[40] = system: COLO 205 colon
[41] = system: SF-295 CNS
[42] = system: HL-60(TB) leukemia
[43] = system: SW-620 colon
[44] = system: BT-549 breast
[45] = system: CCRF-CEM leukemia
[46] = system: EKVX NSCLC
[47] = system: M14 melanoma
[48] = system: SF-268 CNS
[49] = system: NCI-H460 lung
[50] = system: NCI/ADR-RES ovarian
[51] = system: U251 CNS
[52] = system: HCT-116 colon
[53] = system: HOP-92 NSCLC
[54] = system: MOLT-4 leukemia
[55] = system: SK-OV-3 ovarian
[56] = system: RPMI-8226 leukemia
[57] = system: K-562 leukemia
[58] = system: HOP-62 NSCLC
[59] = system: MCF7 breast

Compound: O=C(c1ccc(O)cc1)C1[C@H](c2ccc(Cl)cc2)[C@@H](c2ccccc2)NC12C(=O)Nc1ccccc12 (stereo partly specified)
- GI50 [1]: 4.97 µM
- TGI [1]: 10.1 µM
- GI50 [2]: 7.77 µM
- TGI [2]: 15.4 µM
- GI50 [3]: 4.32 µM
- TGI [3]: 11.7 µM
- GI50 [4]: 6.27 µM
- TGI [4]: 12 µM
- GI50 [5]: 7.17 µM
- TGI [5]: 16.3 µM
- GI50 [6]: 5.14 µM
- TGI [6]: 12.9 µM
- GI50 [7]: 4.86 µM
- TGI [7]: 10.3 µM
- GI50 [8]: 6.03 µM
- TGI [8]: 12.1 µM
- GI50 [9]: 7.02 µM
- TGI [9]: 12.9 µM
- GI50 [10]: 5.19 µM
- TGI [10]: 10.8 µM
- GI50 [11]: 5.6 µM
- TGI [11]: 12.4 µM
- GI50 [12]: 4.73 µM
- TGI [12]: 9.79 µM
- GI50 [13]: 5.8 µM
- TGI [13]: 12.2 µM
- GI50 [14]: 6.42 µM
- TGI [14]: 12.1 µM
- GI50 [15]: 6.71 µM
- TGI [15]: 12.4 µM
- GI50 [16]: 7.01 µM
- TGI [16]: 13.6 µM
- GI50 [17]: 6.08 µM
- TGI [17]: 11.6 µM
- GI50 [18]: 5.77 µM
- TGI [18]: 11.5 µM
- GI50 [19]: 6.96 µM
- TGI [19]: 18.8 µM
- GI50 [20]: 6.26 µM
- TGI [20]: 12 µM
- GI50 [21]: 6.95 µM
- TGI [21]: 13.9 µM
- GI50 [22]: 6.8 µM
- TGI [22]: 13.2 µM
- GI50 [23]: 6.25 µM
- TGI [23]: 12.2 µM
- GI50 [24]: 7.2 µM
- TGI [24]: 14.1 µM
- GI50 [25]: 6.29 µM
- TGI [25]: 12.3 µM
- GI50 [26]: 7.65 µM
- TGI [26]: 16.1 µM
- GI50 [27]: 6.79 µM
- TGI [27]: 12.9 µM
- GI50 [28]: 6.11 µM
- TGI [28]: 13.3 µM
- GI50 [29]: 7.02 µM
- TGI [29]: 12.8 µM
- GI50 [30]: 6.68 µM
- TGI [30]: 12.4 µM
- GI50 [31]: 5.89 µM
- TGI [31]: 11.8 µM
- GI50 [32]: 5.37 µM
- TGI [32]: 11.8 µM
- GI50 [33]: 5.25 µM
- TGI [33]: 11 µM
- GI50 [34]: 5.14 µM
- TGI [34]: 42 µM
- GI50 [35]: 5 µM
- TGI [35]: 10.2 µM
- GI50 [36]: 5.18 µM
- TGI [36]: 10.6 µM
- GI50 [37]: 5.38 µM
- TGI [37]: 10.8 µM
- GI50 [38]: 6.91 µM
- TGI [38]: 12.7 µM
- GI50 [39]: 6.05 µM
- TGI [39]: 12.5 µM
- GI50 [40]: 7.17 µM
- TGI [40]: 15.3 µM
- GI50 [41]: 5.63 µM
- TGI [41]: 11 µM
- GI50 [42]: 7.96 µM
- TGI [42]: 25.6 µM
- GI50 [43]: 8.11 µM
- TGI [43]: 16 µM
- GI50 [44]: 8.32 µM
- TGI [44]: 14.6 µM
- GI50 [45]: 5.9 µM
- TGI [45]: 19.8 µM
- GI50 [46]: 5.3 µM
- TGI [46]: 10.9 µM
- GI50 [47]: 6.19 µM
- TGI [47]: 13.6 µM
- GI50 [48]: 7 µM
- TGI [48]: 15.8 µM
- GI50 [49]: 7.63 µM
- TGI [49]: 15.3 µM
- GI50 [50]: 5.72 µM
- TGI [50]: 11.8 µM
- GI50 [51]: 6.57 µM
- TGI [51]: 12.7 µM
- GI50 [52]: 6.22 µM
- TGI [52]: 12.8 µM
- GI50 [53]: 6.03 µM
- TGI [53]: 12.4 µM
- GI50 [54]: 4.84 µM
- TGI [54]: 18.7 µM
- GI50 [55]: 7.32 µM
- TGI [55]: 14 µM
- GI50 [56]: 8.61 µM
- TGI [56]: 29.9 µM
- GI50 [57]: 8.89 µM
- TGI [57]: 42 µM
- GI50 [58]: 6.99 µM
- TGI [58]: 14.7 µM
- GI50 [59]: 7.26 µM
- TGI [59]: 17.2 µM

Compound: N#Cc1ccc(/C=N/NC(=O)c2[nH]c3ccc(Br)cc3c2-c2ccccc2)o1
- GI50 [1]: 0.124 µM
- TGI [1]: 11.6 µM
- GI50 [2]: 0.379 µM
- TGI [2]: 14.8 µM
- GI50 [3]: 0.482 µM
- TGI [3]: 19.7 µM
- GI50 [4]: 0.278 µM
- TGI [4]: 2.62 µM
- GI50 [5]: 1.1 µM
- TGI [5]: 25.3 µM
- GI50 [6]: 4.66 µM
- TGI [6]: 32.9 µM
- GI50 [7]: 0.318 µM
- TGI [7]: 14.1 µM
- GI50 [8]: 0.294 µM
- TGI [8]: 13.5 µM
- GI50 [9]: 0.806 µM
- TGI [9]: 21.1 µM
- GI50 [10]: 0.427 µM
- TGI [10]: 16.2 µM
- GI50 [11]: 0.333 µM
- TGI [11]: 13.7 µM
- GI50 [12]: 0.454 µM
- TGI [12]: 15.4 µM
- GI50 [13]: 0.383 µM
- TGI [13]: 14 µM
- GI50 [14]: 0.406 µM
- TGI [14]: 21.1 µM
- GI50 [15]: 0.394 µM
- TGI [15]: 17 µM
- GI50 [17]: 0.42 µM
- TGI [17]: 13.4 µM
- GI50 [18]: 0.486 µM
- TGI [18]: 14.7 µM
- GI50 [19]: 0.313 µM
- TGI [19]: 20.1 µM
- GI50 [20]: 0.389 µM
- TGI [20]: 12.6 µM
- GI50 [22]: 7.32 µM
- TGI [22]: 26.9 µM
- GI50 [23]: 0.308 µM
- TGI [23]: 10.1 µM
- GI50 [24]: 0.226 µM
- TGI [24]: 0.624 µM
- GI50 [25]: 0.338 µM
- TGI [25]: 14 µM
- GI50 [26]: 0.315 µM
- TGI [26]: 11.3 µM
- GI50 [27]: 1.19 µM
- TGI [27]: 19.7 µM
- GI50 [28]: 0.204 µM
- TGI [28]: 2.52 µM
- GI50 [29]: 0.212 µM
- TGI [29]: 0.527 µM
- GI50 [30]: 0.434 µM
- TGI [30]: 22.2 µM
- GI50 [31]: 15.6 µM
- TGI [31]: 42.3 µM
- GI50 [32]: 1.11 µM
- TGI [32]: 27.5 µM
- GI50 [33]: 0.369 µM
- TGI [33]: 14.6 µM
- GI50 [34]: 0.152 µM
- GI50 [35]: 0.392 µM
- TGI [35]: 17.9 µM
- GI50 [36]: 0.404 µM
- TGI [36]: 16.6 µM
- GI50 [37]: 0.246 µM
- TGI [37]: 0.655 µM
- GI50 [38]: 0.272 µM
- TGI [38]: 0.77 µM
- GI50 [39]: 0.0914 µM
- TGI [39]: 0.34 µM
- GI50 [40]: 0.198 µM
- TGI [40]: 0.371 µM
- GI50 [41]: 0.321 µM
- TGI [41]: 13.3 µM
- GI50 [42]: 0.196 µM
- TGI [42]: 2.78 µM
- GI50 [43]: 0.421 µM
- TGI [43]: 20.1 µM
- GI50 [44]: 0.243 µM
- TGI [44]: 3.22 µM
- GI50 [45]: 0.295 µM
- TGI [45]: > 54.5 µM
- GI50 [46]: 0.496 µM
- TGI [46]: 27.3 µM
- GI50 [47]: 0.324 µM
- TGI [47]: 22.7 µM
- GI50 [48]: 0.611 µM
- TGI [48]: 20.3 µM
- GI50 [49]: 0.347 µM
- TGI [49]: 10.7 µM
- GI50 [50]: 0.136 µM
- TGI [50]: 0.408 µM
- GI50 [51]: 0.33 µM
- TGI [51]: 12.3 µM
- GI50 [52]: 0.198 µM
- TGI [52]: 11.7 µM
- GI50 [53]: 2.12 µM
- TGI [53]: 18.2 µM
- GI50 [54]: 0.352 µM
- TGI [54]: 32.7 µM
- GI50 [55]: 0.513 µM
- TGI [55]: 22.5 µM
- GI50 [56]: 0.369 µM
- TGI [56]: 27.9 µM
- GI50 [57]: 0.128 µM
- TGI [57]: 15 µM
- GI50 [58]: 0.35 µM
- TGI [58]: 13.5 µM
- GI50 [59]: 0.306 µM
- TGI [59]: 16.7 µM
